Laboratory results reported in the supplement of paper PMC10307832.

Experiments:
Assay in all cases: relative viability (nuclei count vs DMSO), 5 days (fraction); higher = more cells survive
FH535 + Dasatinib = compound: CC1=C(C=CC(=C1)[N+](=O)[O-])NS(=O)(=O)C2=C(C=CC(=C2)Cl)Cl [FH535] + Cc1nc(Nc2ncc(C(=O)Nc3c(C)cccc3Cl)s2)cc(N2CCN(CCO)CC2)n1 [Dasatinib] (partner 0.075 µM)
How it was run: (§1)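 Relative viability divides the nuclei count in treated wells by that in vehicle wells. Lung cancer cell lines were seeded in 1536-well plates, dosed by pin tool the next day, and fixed and stained after 5 days in one step with final 0.05% Triton X-100, 1% formaldehyde and 1 ug/ml Hoechst. Dosing was a single drug or a fixed anchor-drug dose plus five library-drug doses (not always all listed) in √10 steps, and values are medians of duplicate plates imaged at 4×.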

FH535 + Lapatinib = compound: CC1=C(C=CC(=C1)[N+](=O)[O-])NS(=O)(=O)C2=C(C=CC(=C2)Cl)Cl [FH535] + CS(=O)(=O)CCNCc1ccc(-c2ccc3ncnc(Nc4ccc(OCc5cccc(F)c5)c(Cl)c4)c3c2)o1 [Lapatinib] (partner 2 µM)
How it was run: as §1

FH535 + Navitoclax = compound: CC1=C(C=CC(=C1)[N+](=O)[O-])NS(=O)(=O)C2=C(C=CC(=C2)Cl)Cl [FH535] + CC1(C)CCC(c2ccc(Cl)cc2)=C(CN2CCN(c3ccc(C(=O)NS(=O)(=O)c4ccc(N[C@H](CCN5CCOCC5)CSc5ccccc5)c(S(=O)(=O)C(F)(F)F)c4)cc3)CC2)C1 [Navitoclax] (partner 0.5 µM)
How it was run: as §1

FH535 + Trametinib = compound: CC1=C(C=CC(=C1)[N+](=O)[O-])NS(=O)(=O)C2=C(C=CC(=C2)Cl)Cl [FH535] + CC(=O)Nc1cccc(-n2c(=O)n(C3CC3)c(=O)c3c(Nc4ccc(I)cc4F)n(C)c(=O)c(C)c32)c1 [Trametinib] (partner 0.02 µM)
How it was run: as §1

FH535 + Foretinib = compound: CC1=C(C=CC(=C1)[N+](=O)[O-])NS(=O)(=O)C2=C(C=CC(=C2)Cl)Cl [FH535] + COc1cc2c(Oc3ccc(NC(=O)C4(C(=O)Nc5ccc(F)cc5)CC4)cc3F)ccnc2cc1OCCCN1CCOCC1 [Foretinib] (partner 0.25 µM)
How it was run: as §1

Cell Line	relative viability (FH535 + Dasatinib; first compound 0.04 µM)	relative viability (FH535 + Dasatinib; first compound 0.1265 µM)	relative viability (FH535 + Dasatinib; first compound 0.4 µM)	relative viability (FH535 + Dasatinib; first compound 1.265 µM)	relative viability (FH535 + Lapatinib; first compound 0.04 µM)	relative viability (FH535 + Lapatinib; first compound 0.1265 µM)	relative viability (FH535 + Lapatinib; first compound 0.4 µM)	relative viability (FH535 + Lapatinib; first compound 1.265 µM)	relative viability (FH535 + Navitoclax; first compound 0.04 µM)	relative viability (FH535 + Navitoclax; first compound 0.1265 µM)	relative viability (FH535 + Navitoclax; first compound 0.4 µM)	relative viability (FH535 + Navitoclax; first compound 1.265 µM)	relative viability (FH535 + Trametinib; first compound 0.04 µM)	relative viability (FH535 + Trametinib; first compound 0.1265 µM)	relative viability (FH535 + Trametinib; first compound 0.4 µM)	relative viability (FH535 + Trametinib; first compound 1.265 µM)	relative viability (FH535 + Foretinib; first compound 0.04 µM)	relative viability (FH535 + Foretinib; first compound 0.1265 µM)	relative viability (FH535 + Foretinib; first compound 0.4 µM)	relative viability (FH535 + Foretinib; first compound 1.265 µM)
NCI-H2023	0.601	0.616	0.49	0.459	0.671	0.846	0.919	0.738	1	1	1.04	0.804	0.542	0.641	0.598	0.44	0.876	0.995	0.699	0.743
NCI-H2085	0.271	0.174	0.284	0.217	0.744	0.686	0.692	0.573	1.1	1.05	1.05	0.846	0.567	0.624	0.503	0.403	1.01	0.869	0.89	0.59
NCI-H2087	0.685	0.711	0.714	0.675	0.918	0.825	0.868	0.6	0.811	1.11	0.947	0.518	0.243	0.152	0.182	0.157	1.05	1.07	0.916	0.766
NCI-H2126	0.598	0.573	0.49	0.292	0.734	0.679	0.696	0.676	0.779	0.875	0.778	0.628	0.541	0.624	0.535	0.392	0.955	1.31	1.06	0.601
NCI-H2170	0.664	0.611	0.429	0.625	0.26	0.332	0.265	0.254	0.612	0.548	0.597	0.54	0.964	0.883	0.752	0.706	1.06	0.96	0.988	0.891
NCI-H2228	0.49	0.502	0.552	0.402	0.574	1.15	1.2	0.927	0.826	1.1	0.841	0.728	0.376	0.368	0.464	0.413	0.752	0.87	0.707	0.936
NCI-H2347	0.298	0.292	0.294	0.261	0.979	0.664	0.971	0.781	0.684	0.792	0.871	0.705	0.276	0.318	0.3	0.291	0.792	0.865	1.03	0.701
NCI-H2405	0.202	0.243	0.232	0.221	0.934	1.13	0.963	0.734	0.762	0.976	0.868	0.448	0.56	0.651	0.611	0.531	1.01	1.07	0.967	0.761
